From patent US6369109B1, “Betulinic acid and derivatives thereof useful for the treatment of neuroectodermal tumor” (Deutsches Krebsforschungszentrum Stiftung des Offentlichen …, priority 1998, dated 2002)

How the values were obtained:
[1] = system: mitochondria isolated from SHEP cells; test: Cytochrome c release from isolated mitochondria (Western blot); assay type: biochemical, human; settings: bongkrekic acid; FIG. 10C
Method: Cells were lysed for 30 min at 4° C. in PBS with 0.5% Triton X (Serva, Heidelberg, Germany) and 1 mM PMSF (Sigma, Deisenhofen, Germany) followed by high-speed centrifugation. Membrane proteins were eluted in buffer containing 0.1 M glycine, pH 3.0 and 1.5 M Tris, pH 8.8. Protein concentration was assayed using bicinchoninic acid (Pierce, Rockford, Ill.). 40 μg protein per lane was separated by 12% or 15% SDS-PAGE and electro blotted onto nitrocellulose (Amersharn, Braunschweig, Germany). Equal protein loading was controlled by Ponceau red staining of membranes. After blocking for 1 h in PBS supplemented with 2% BSA (Sigma) and 0.1% Tween 20 (Sigma), immunodetection of caspases-3 and -8, PARP, and cytochrome c protein was done using mouse anti-caspase-8 mAb C15 (Scaffidi et al., 1997, J. Biol. Chem. 272, 26953-26958, 1:5 dilution of hybridoma supernatant), mouse anti-caspase-3-specific mAb (1:1000, Transduction Laboratories, Lexington, Ky.), rabbit anti-PARP polyclonal antibody (1:10000, Enzyme Systems Products) or mouse anti-cytochrome c mAb (1:5000, PharMingen, San Diego, Calif.). Goat anti-mouse IgG or goat anti-rabbit IgG (1:5000, Santa Cruz Biotechnology) followed by ECL (Amersham) was used for detection.
Mitochondria isolated from SHEP cells transfected with bcl-2, Bcl-XL or a neontycin resistance vector only (Neo) were treated with 10 μg/ml betulinic acid. […]

[2] = system: CD95-L mRNA in SH-EP neuroblastoma cells; test: CD95-L mRNA expression by RT-PCR; assay type: cell-based, human; settings: 5 and 10 μg/ml betulinic acid; 0.5 μg/ml doxorubicin 24 h; FIG. 3A
Method: Total RNA was prepared using the Qiagen total RNA kit (Qiagen, Hilden, Germany). RNA was converted to cDNA by reverse transcription and amplified for 38 cycles by PCR in a thermocycler (Stratagene, Heidelberg, Germany) using the Gene Amplification RNA-PCR kit (Perkin-Elmer, Branchburg, N.J.) following the manufacturer's instructions. Primers used for amplification of the CD95-L fragment are according to the sequence of human CD95-L (Suda et al., 1995, Cell 75:1169-1178; Herr et al., 1996, Cell Death Diff., 5:299-305). Expression of β-actin (MWG-Biotech, Ebersberg, Germany) was used as an internal standard for RNA integrity and equal gel loading. PCR products were run at 60 V for 2 h on a 1.5% agarose gel stained with ethidium bromide and visualized by UV illumination.
SH-EP neuroblastoma cells were incubated with 5 and 10 μg/ml betulinic acid for the indicated times or with 0.5 μg/ml doxorubicin for 24 h. CD95-L mRNA expression was determined by RT-PCR. Expression of μ-actin was used to control RNA integrity and equal gel loading.

[3] = system: CD95-L and CD95 in SHEP cells transfected with Bcl-2, Bcl-XL or Neo; test: Induction of CD95-L and CD95 (RT-PCR, Western blot, FACS); assay type: cell-based, human; settings: 0.5 μg/ml Doxo or 10 μg/ml betulinic acid, 24 h, Bcl-2 or Bcl-XL cells, FIG. 13
Method: Cells were stained with anti-APO-1 (CD95) IgGl monoclonal antibody (moab) (1 μg/ml; Trauth et al., 1989, Science 245:301-305) for 45 minutes at 4° C. followed by goat anti-mouse IgG-FITC (Immunotech, Hamburg, Germany) for 30 minutes at 4° C. FII23 IgGl antibody was used as an isotype matched non-binding antibody to control unspecific binding.
Total RNA was prepared using the Qiagen total RNA kit (Qiagen, Hilden, Germany). RNA was converted to cDNA by reverse transcription and amplified for 38 cycles by PCR in a thermocycler (Stratagene, Heidelberg, Germany) using the Gene Amplification RNA-PCR kit (Perkin Elmer, Branchburg, N.J.) following the manufacturer's instructions. A 500-base pair fragment of CD95-L was amplified using primer 5′[…]3′ (SEQ ID:No 1) and 5′[…]3′ (SEQ ID NO:2) and a 311-base pair fragment of CD95 was amplified using primer 5′[…] […]
CD95-L mRNA expression was determined by RT-PCR. […] CD95-L protein was detected as a Mr 37,000 band by mouse anti-CD9S-L moab and enhanced chemiluminescence.
SHEP cells transfected with Bcl-2 or Bcl-XL or a neomycin resistance vector only (Neo) were treated (Lanes+) with 0.5 μg/ml Doxo or 10 μg/ml Bet A for 24 h. CD95 mRNA expression was determined by RT-PCR. […] For FACS analysis of CD95 protein expression (C), cells were stained with mouse anti-APO-1 moab followed Dy FITC-conjugated antimouse IgG antibody and analyzed by flow cytometry. […]

Row | SMILES | effect of inhibitor on betulinic acid-driven release of cytochrome c [1] | CD95-L mRNA induction [2] | induction of CD95-L and CD95 [3]
1 | CO[C@H](C/C=C\C=C\CC/C=C/C[C@H](C)/C=C/C(=C\C(=O)O)CC(=O)O)/C(C)=C\C=C(/C)C(=O)O [bongkrekic acid] | blocked |  | 
2 | COc1cccc2c1C(=O)c1c(O)c3c(c(O)c1C2=O)C[C@@](O)(C(=O)CO)C[C@@H]3O[C@H]1C[C@H](N)[C@H](O)[C@H](C)O1 [doxorubicin] |  | strongly up-regulated CD95-L mRNA | Both CD95-L and CD95 were induced at the mRNA and protein level
